Measurements reported in EP2932958A1, “COSMETIC AND PHARMACEUTICAL APPLICATIONS OF N-ACETYLHYDROXYPROLINE” (Beiersdorf AG, priority 2007, dated 2008).

Experiments:
BSA [1] = biological target: T1, BSA (Bos taurus, UniProt P02769); assay: Inhibition of CML glycation of BSA with DHA, dot-blot (part B); format: biochemical, Bovine; conditions: BSA 1%, DHA 1%, 1 day at 50°C; series I 0.17 % and II 9.82 mM of inhibitor
Procedure: Samples (A-F) were incubated for 1 day at 50°C and analysed for CML-content using the dot-blot approach set forth above in A. The dot-blot results are shown in Figure 11.
(§1) The samples had the following composition: • A: only BSA (1%) • B: BSA (1%) with DHA (1%) • C: BSA (1%) with Hydroxyproline and DHA (1 %) • D: BSA (1%) with N-Acetylhydroxyproline (NAHP) and DHA (1%) • E: BSA (1%) with Proline and DHA (1%) • F: BSA (1%) with Acetylproline and DHA (1%)
(§2) Each sample (A-F) was tested twice (I+II) with the difference that I. was conducted with 0.17 % of each inhibitor (Proline, Hydroxyproline, Acetylproline or NAHP) and II. was conducted with 9.82 mM of each inhibitor.
The intensity of each dot was quantified. The results are represented in Figure 12.

[2] = test system: age spots (senile lentigo); assay: Lightening effect on undesired skin pigmentation (age spots); format: in vivo; conditions: after seven days
Excerpt: Undesired and uneven skin pigmentation such as, e.g., age spots (senile lentigo) are a major problem associated with the aging of skin and skin appendages. N-acetylhydroxyproline has an effect with respect to the lightening of age spots.

BSA [3] = biological target: T1, BSA; assay: AGE-fluorescence of BSA incubated with DHA (part B, samples II); format: biochemical, Bovine; conditions: BSA 1%, DHA 1%
Procedure: as §1, §2
Samples A-F (II) were further tested regarding the inhibition of the formation of other AGEs (different from CML). To this end, the AGE-fluorescence at λex=370 nm and λem= 440 nm was measured. The wavelengths used are those proposed by Bellmunt et al., Lung 173 (1995), 177-85 and used by many laboratories.

BSA [4] = biological target: T1, BSA; assay: Inhibition of BSA-CML formation with glucose, dot-blot with CML-specific antibody (part A); format: biochemical, Bovine; conditions: BSA 1.035 %, glucose 1 M, 7 days at 50°C, various amounts of NAHP
Procedure: BSA samples of were incubated with glucose for 7 days at 50°C in the presence of various amounts of NAHP and thereafter analysed for their CML-content using a dot-blot approach. An antibody which is specific for the CML modifications of immobilised proteins (in this case BSA) on a nitrocellulose membrane was used to make the CML modifications visible. […] The stronger the intensity of each dot in the above series, the higher is the concentration of CML-modifications on the BSA. The control consists of BSA without glycation agent (glucose). Each single dot was quantified for its intensity leading to the results which are shown diagrammatically in Figure 10.
The concentration of BSA was 1.035 % (10.35 mg/ml) and the concentration of glucose in each sample was 1 M.

BSA [5] = biological target: T1, BSA; assay: BSA-Glucose Assay of AGE formation at pH 5 and pH 7 (part F); format: biochemical, Bovine; conditions: BSA with glucose, 7 days at 50°C
Procedure: As acetylated compounds result in a decrease in the pH, the effect of NAHP was compared at two different pH values (pH 5 and pH 7). As described in Section A, the BSA-Glucose Assay was used. To stabilize the pH the adjustment was performed after the addition of the inhibitor.
After incubation of BSA with glucose for 7 days at 50°C a significant increase in AGE fluorescence is detectable. An acidic environment (pH 5) results in a much less intensive AGE-formation in the BSA-Glucose Assay than a neutral, environment (pH 7).

human fibroblasts [6] = assay: Vimentin redistribution to a perinuclear aggregate after glyoxal treatment (immunofluorescence microscopy); format: cell-based
Procedure: To determine whether the loss of contractile capacity is the result of a CML-induced redistribution of vimentin, immunofluorescence microscopic analysis of fibroblasts with and without glyoxal treatment were employed. […] About 90% of the fibroblasts were affected after incubation for 7 days.
For immunostaining, cells were fixed in 3% paraformaldehyde for 30 minutes at room temperature, washed with PBS and permeabilized with 0.5% Triton X-100 for 5 minutes; after which the cells were blocked with 3% BSA for 30 minutes. Cells were then incubated with primary antibody in 1% BSA for 1 hour. […] Cells were then incubated for 1 hour with 1% BSA solution containing fluorescence-labelled secondary antibodies (AlexaFluor 488 chicken-anti-mouse IgG, AlexaFluor 594 donkey-anti-goat IgG, AlexaFluor 546 donkey-anti-goat IgG, Molecular Probes, Eugene, Oregon) at 1:1,000 to visualise the target protein and DAPI (Molecular Probes, Eugene, Oregon). After extensive washing with PBS fluorescence images were recorded on a fluorescence microscope (Olympus, Hamburg, Germany) with an attached […] camera. Confocal fluorescence images were recorded on LSM 510 Meta (Carl Zeiss, Jena, Germany). […]

human fibroblasts [7] = assay: Contraction capacity of fibroblasts in 3D free-floating collagen lattices; format: cell-based; conditions: glyoxal treated vs control fibroblasts, n=10, p=0.00056
Procedure: Further, normal fibroblasts were compared with fibroblasts with a higher CML-vimentin modification with respect to contractile capacities. The contractile capacity was determined using 3D free-floating collagen lattices^29,30.
100 mg Type I collagen (Sigma, St. Louis, USA) was dissolved at 4°C in 33.3 ml of 0.1% sterile acetic acid. 0.9 ml of 10x Hank's Buffer Salt Solution (Biochrom, Berlin, Germany) was added to 4.5 ml of this solution of collagen. 1.9 ml of 0.1% acetic acid was supplemented. NaOH was added dropwise to neutralise the solution. 1.5 x 10^5 fibroblasts were resuspended in 0.1 ml FCS and added to the solution for each ml of the gel. Casy Model TT (Schärfe System, Reutlingen, Germany) was used to count the fibroblasts and to control their viability. […] Diameters were measured at 0 hours and 24 hours. […]
Human fibroblasts were incubated for 7 days with 200 µM glyoxal^18,20 and tested for CML formation using FACS analysis as described above (a). Quantitative analysis of (a) is shown in panel (b, right columns) together with quantitative analysis of dot-blots as described in the legend to Fig.4 and the Methods section (b, left columns). […] Additionally, the two cell populations were lysed, vimentin was immunoprecipitated and analysed for CML-modification by SDS-page and immunoblotting. […] The contraction of these lattices was measured after 48h. […]

[8] = test system: Primary human fibroblasts; assay: CML formation in fibroblasts after glyoxal treatment (FACS, immunoblot, immunoprecipitation); format: cell-based; conditions: 200 µM glyoxal for 7 days
Procedure: To test the effect of CML-modifications on vimentin function cells were treated with glyoxal to induce CML-vimentin modifications in fibroblasts. Primary human fibroblasts were incubated with 200 µM glyoxal for 7 days to enhance CML formation^18,20,28. […] The higher rate of CML-vimentin formation leads to a predominant modification of vimentin in the linker region of the molecule.
Proteins from cell extracts (20 µg per lane) were separated by gel electrophoresis under denaturing conditions on 10% SDS-PAGE gels. Immunoblotting was performed following standard procedures using chemiluminescence methods. […] Signals were quantified using LumiAnalyst (Boehringer Mannheim, Germany). […]
Fibroblasts were incubated for 7 days with 200 µM glyoxal^18,20. […] After 3 washing steps with PBS the fluorescence was measured using FACSCanto (BD Biosciences, San Jose, USA) and analysed by the software BD FACSDiva 4.0.
Human fibroblasts were incubated for 7 days with 200 µM glyoxal^18,20 and tested for CML formation using FACS analysis as described above (a). Quantitative analysis of (a) is shown in panel (b, right columns) together with quantitative analysis of dot-blots as described in the legend to Fig.4 and the Methods section (b, left columns). […] Additionally, the two cell populations were lysed, vimentin was immunoprecipitated and analysed for CML-modification by SDS-page and immunoblotting. […]

T1 sequence (P02769 25-607): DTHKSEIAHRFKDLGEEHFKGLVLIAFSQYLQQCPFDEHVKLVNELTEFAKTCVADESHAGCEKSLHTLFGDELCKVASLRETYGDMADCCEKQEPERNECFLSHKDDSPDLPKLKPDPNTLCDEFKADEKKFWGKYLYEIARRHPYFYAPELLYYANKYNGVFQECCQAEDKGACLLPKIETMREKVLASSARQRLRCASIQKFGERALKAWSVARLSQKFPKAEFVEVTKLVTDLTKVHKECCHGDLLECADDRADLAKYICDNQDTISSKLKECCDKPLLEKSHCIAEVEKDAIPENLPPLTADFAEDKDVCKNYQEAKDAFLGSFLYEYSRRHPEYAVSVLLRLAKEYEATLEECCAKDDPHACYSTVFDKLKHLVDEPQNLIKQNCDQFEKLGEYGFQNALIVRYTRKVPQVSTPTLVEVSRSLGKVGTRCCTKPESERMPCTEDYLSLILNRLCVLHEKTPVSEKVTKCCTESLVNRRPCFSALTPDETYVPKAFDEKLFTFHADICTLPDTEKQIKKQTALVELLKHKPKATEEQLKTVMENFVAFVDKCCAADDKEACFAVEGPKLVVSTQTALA

SMILES | inhibitory effect on the CML-glycation of BSA (dot-blot intensity) (BSA [1]) | brightness of the treated age spot [2] | formation of fluorescent AGEs (AGE-fluorescence at λex=370 nm and λem= 440 nm) (BSA [3]; 9.82 mM inhibitor (samples II)) | brownish color of AGEs in the solution (BSA [3]; samples II, digital picture) | CML glycation of BSA (dot-blot intensity) (BSA [4]) | AGE-formation (AGE fluorescence) at pH 5 (BSA [5]; pH 5) | AGE-formation (AGE fluorescence) at pH 7 (BSA [5]; pH 7) | fibroblasts showing perinuclear vimentin aggregate formation (human fibroblasts [6]; 200 µM glyoxal for 2 days) | fibroblasts affected by vimentin aggregate formation (human fibroblasts [6]; 200 µM glyoxal, incubation for 7 days) | contractile capacity of fibroblasts in 3D collagen lattices (human fibroblasts [7]) | CML as measured by FACS and immunoblot analysis [8]
CC(=O)N1CCC[C@H]1C(=O)O [Acetylproline, reference compound] | potent inhibitor of the CML-glycation, but to a lesser extent than NAHP |  |  |  |  |  |  |  |  |  | 
CC(=O)N1C[C@H](O)C[C@H]1C(=O)O [NAHP, N-acetylhydroxyproline] | strongest inhibitory effect | increase in brightness | inhibited | absent | protective effect on BSA, preventing the CML glycation of this protein | reduced AGE-formation | reduced AGE-formation |  |  |  | 
O=CC=O [glyoxal] |  |  |  |  |  |  |  | About 70% | About 90% | significantly reduced | massive increase of CML
